Results as given in US9611221B2, “Histone demethylase inhibitors” (CELGENE QUANTICEL RESEARCH, INC., priority 2012, dated 2017).

The molecules below were run against JMJD2C (Homo sapiens (Human), UniProt Q9H3R0) (assay: JMJD2C in vitro enzyme inhibition assay (TR-FRET)). Conditions: 0.3 nM JMJD2C, 300 nM H3K9me3-biotin peptide, 2 μM alpha-ketoglutaric acid.
Type: biochemical
From the text: This assay determines the ability of a test compound to inhibit Jarid1A, Jarid1B, and JMJD2C demethylase activity. Baculovirus expressed Jarid1A (GenBank Accession #NM_001042603, AA1-1090) was purchased from BPS Bioscience (Cat#50110). Baculovirus expressed Jarid1B (GenBank Accession #NM_006618, AA 2-751) was purchased from BPS Bioscience (Cat #50121) or custom made by MolecularThroughput. Baculovirus expressed JMJD2C (GenBank Accession #BC143571, AA 2-372) was purchased from BPS Bioscience (Cat#50105).
The ability of test compounds to inhibit the activity of JMJD2C was determined in 384-well plate format under the following reaction conditions: 0.3 nM JMJD2C, 300 nM H3K9me3-biotin labeled peptide (Anaspec cat #64360), 2 μM alpha-ketoglutaric acid in assay buffer of 50 mM HEPES, pH7.3, 0.005% Brij35, 0.5 mM TCEP, 0.2 mg/ml BSA, 50 μM sodium L-ascorbate, and 2 μM ammonium iron(II) sulfate. Reaction product was determined quantitatively by TR-FRET after the addition of detection reagent Phycolink Streptavidin-allophycocyanin (Prozyme) and Europium-anti-di-methylated histone H3 lysine 9 (H3K9me2) antibody (PerkinElmer) in the presence of 5 mM EDTA in LANCE detection buffer (PerkinElmer) at a final concentration of 50 nM and 1 nM, respectively.
The reaction mixture was incubated at room temperature for 30 minutes, and terminated by the addition of 6 μl of 5 mM EDTA in LANCE detection buffer containing 100 nM Phycolink Streptavidin-allophycocyanin and 2 nM Europium-anti-H3K9me2 antibody. Plates were read by EnVisionMultilabel Reader in TR-FRET mode (excitation at 320 nm, emission at 615 nm and 665 nm) after 1 hour incubation at room temperature. A ratio was calculated (665/615) for each well and fitted to determine inhibition constant (IC50).

Chain of JMJD2C (Q9H3R0 2-372): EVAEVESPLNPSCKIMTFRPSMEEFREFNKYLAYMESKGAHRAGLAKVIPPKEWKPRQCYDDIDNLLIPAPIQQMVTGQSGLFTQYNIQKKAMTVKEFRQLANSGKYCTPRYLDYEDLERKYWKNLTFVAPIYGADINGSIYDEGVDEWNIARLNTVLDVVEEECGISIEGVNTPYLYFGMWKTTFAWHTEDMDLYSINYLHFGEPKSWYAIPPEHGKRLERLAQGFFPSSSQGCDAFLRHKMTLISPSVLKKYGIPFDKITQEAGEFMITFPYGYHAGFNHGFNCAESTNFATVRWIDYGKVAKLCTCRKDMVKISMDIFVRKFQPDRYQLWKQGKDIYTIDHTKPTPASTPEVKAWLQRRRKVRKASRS

| Molecule | IC50 [nM] |
| --- | --- |
| 3-{[(6-chloro-1,2,3,4-tetrahydronaphthalen-1- yl)methyl]amino}pyridine-4-carboxylic acid [Example 68] | 100 to 1000 |
| 3-{[(6-chloro-1-hydroxy-1,2,3,4- tetrahydronaphthalen-1- yl)methyl]amino}pyridine-4-carboxylic acid [Example 67] | 100 to 1000 |
| 3-{[(7-fluoro-3,4-dihydro-2H-chromen-4- yl)methyl]amino}pyridine-4-carboxylic acid [Example 65] | ≤ 100 |
| CC(C)Oc1ccc(CNc2cnccc2C(=O)O)cc1 [Example 11, 3-{[4-(propan-2-yloxy)benzyl]amino}pyridine-4-carboxylic acid] | 100 to 1000 |
| O=C(O)c1ccncc1NCC1=CCCc2ccc(F)cc21 [Example 51, 3-{[(7-fluoro-3,4-dihydronaphthalen-1-yl)methyl]amino}pyridine-4-carboxylic acid] | 100 to 1000 |
| Cc1cc(C)c2c(c1)C(CNc1cnccc1C(=O)O)CCC2 (stereo not shown) [Example 52, 3-{[(5,7-dimethyl-1,2,3,4-tetrahydronaphthalen-1-yl)methyl]amino}pyridine-4-carboxylic acid] | 1000 to 10000 |
| O=C(O)c1ccncc1NCC1CCCc2c(F)cccc21 (stereo not shown) [Example 54, 3-{[(5-fluoro-1,2,3,4-tetrahydronaphthalen-1-yl)methyl]amino}pyridine-4-carboxylic acid] | 100 to 1000 |
| CC1(C)CCC(CNc2cnccc2C(=O)O)c2ccccc21 (stereo not shown) [Example 59, 3-{[(4,4-dimethyl-1,2,3,4-tetrahydronaphthalen-1-yl)methyl]amino}pyridine-4-carboxylic acid] | 100 to 1000 |
| COc1ccc2c(c1)CCC[C@@H]2CNc1cnccc1C(=O)O [Example 61, 3-({[(1S)-6-methoxy-1,2,3,4-tetrahydronaphthalen-1-yl]methyl}amino)pyridine-4-carboxylic acid] | 100 to 1000 |
| COc1ccc2c(c1)CCC[C@H]2CNc1cnccc1C(=O)O [Example 62, 3-({[(1R)-6-methoxy-1,2,3,4-tetrahydronaphthalen-1-yl]methyl}amino)pyridine-4-carboxylic acid] | 100 to 1000 |

The remaining lines, values ahead:

| IC50 [nM] | Molecule |
| --- | --- |
| 100 to 1000 | O=C(O)c1ccncc1NCC1(O)CCCc2c(F)cccc21 (stereo not shown) [Example 55, 3-{[(5-fluoro-1-hydroxy-1,2,3,4-tetrahydronaphthalen-1-yl)methyl]amino}pyridine-4-carboxylic acid] |
| ≤ 100 | O=C(O)c1ccncc1NC[C@H]1CCCc2c(F)cccc21 [Example 56, 3-({[(1S)-5-fluoro-1,2,3,4-tetrahydronaphthalen-1-yl]methyl}amino)pyridine-4-carboxylic acid] |
| 100 to 1000 | O=C(O)c1ccncc1NC[C@@H]1CCCc2c(F)cccc21 [Example 57, 3-({[(1R)-5-fluoro-1,2,3,4-tetrahydronaphthalen-1-yl]methyl}amino)pyridine-4-carboxylic acid] |
| 100 to 1000 | CC(C)Oc1ccc2c(c1)CCCC2CNc1cnccc1C(=O)O (stereo not shown) [Example 64] |
| 100 to 1000 | O=C(O)c1ccncc1NCC1CCOc2cc(Cl)ccc21 (stereo not shown) [Example 66, 3-{[(7-chloro-3,4-diydro-2H-chromen-4-y)methyl]amino}pyridine-4-carboxylic acid] |
| 100 to 1000 | O=C(O)c1ccncc1NCC1CCOc2cc(-c3ccccc3)ccc21 (stereo not shown) [Example 69, 3-{[(7-phenyl-3,4-dihydro-2H-chromen-4-yl)methyl]amino}pyridine-4-carboxylic acid] |
| 100 to 1000 | O=C(O)c1ccncc1NCC1CCOc2cc(F)ccc21 (stereo not shown) [Example 70, 3-{[(7-fluoro-3,4-dihydro-2H-chromen-4-yl)methyl]amino}pyridine-4-carboxylic acid] |
| ≤ 100 | O=C(O)c1ccncc1NCC1CCOc2c(F)cccc21 (stereo not shown) [Example 71, 3-{[(8-fluoro-3,4-dihydro-2H-chromen-4-yl)methyl]amino}pyridine-4-carboxylic acid] |
| 100 to 1000 | O=C(O)c1ccncc1NCC1CCCc2ccc(Cl)cc21 (stereo not shown) [Example 72, 3-{[(7-chloro-1,2,3,4-tetrahydronaphthalen-1-yl)methyl]amino}pyridine-4-carboxylic acid] |
